Experiments:
CMLC clusters = assay: Transmembrane action potential (TAP) microelectrode recordings in beating CMLC; type: cell-based, human
Procedure: Transmembrane action potentials (TAP) were recorded by using a microelectrode filled with 3 M KCl (resistance 10 to 20 MΩ) connected via an Ag/AgCl junction to a high impedance amplifier (Intracellular Electrometer IE-210, Warner Instrument Corporation). Sharp microelectrodes were prepared using a glass, and a micromanipulator was used to lower the electrode into the bath and enter the cluster. The same impalement was kept for as long as possible. […] Steady-state recordings of action potentials at spontaneous frequency or during electric stimulation of 1-4 Hz were made. All calculations were made on the average of 10 (consecutive) action potentials. The bath was continuously perfused with Tyrode's solution consisting of (in mmol/L) 130 NaCl, 4 KCl, 0.5 MgSO4.7H20, 1.8 NaH2PO4xH2O, 18 NaHCO3, 5.5 glucose, 1.8 CaCl2 and kept at 37° C.
Electrical stimulation of the CMLC was done using field stimulation by means of a mobile electrode.
Change in APD was calculated and used to determine prolongation and assess triangularization.
To investigate the role of the funny current (If) in spontaneously contracting CMLC, 10 μM zatebradine was administered.

[1] = system: contracting clusters of cells; assay: Functional receptors: contractile activity of contracting areas after pharmacological agents (method of Norström et al. 2006); type: cell-based, human; settings: agents administered to contracting areas; method and Table 1 of Norström et al. 2006
[2] = system: spontaneously beating CMLC; assay: Visually registered contraction rate of spontaneously beating CMLC; type: cell-based, human; settings: 5 μM
Procedure: FIG. 28. The effect of Zatebradine on the beating frequency of contracting CMLC derived from hBS cells. […] The change in beating frequency was calculated by visually registering the contraction rate before and after Zatebradine administration. Values are expressed as beats per minute±SEM, n=32, ***=p<0.001. Statistical significance was calculated using paired t-test. […] The mRNA expression of HCN4 and Troponin T2 was measured using real-time RT quantitative PCR and related to the expression of the endogenous control CREBBP. Values are expressed as relative gene expression as compared to a reference sample set to 100% (n=32). Statistical analysis was performed using linear regression analysis.
CMLC were derived from undifferentiated hBS cells essentially as described in Example 1 using cell line SA002. Zatebradine is a substance known to block so called funny channels, e.i. hyperpolarization-activated, cyclic nucleotide-gated (HCN) channels 1-4, which are involved in the regulation of cardiomyocyte contraction and cardiac rate. In order to investigate the effect of Zatebradine on CMLC derived from hBS cells and to correlate this effect to age and gene expression, Zatebradine was administered at a concentration of 5 μM to 32 spontaneously beating clusters of different ages. […] Gene expression was quantified using real-time RT quantitative PCR. […]

hBS cells (SA002) = assay: Yield of beating CMLC from differentiating hBS cells, counted visually; type: cell-based, human; settings: for Yield of beating CMLC compared to control cultures not receiving additional factors: 5 μM pre-plating in addition to Activin A 10 ng/ml and bFGF 12 ng/ml, day 7 after plating
Procedure: Spontaneously contracting cells were derived from undifferentiated hBS cells cultured on MEF cells (Heins et al 2004 Stem Cells). The cell lines used for this experiment could be the hBS cell line SA002, SA121, SA001, SA002.5, SA461 (Cellartis AB, Goteborg, Sweden, http://www.cellartis.com) and they can be propagated as described Heins et al. 2004. These cell lines are listed in the NIH stem cell registry and the UK Stem Cell bank. The hBS cells were detached from the feeder layer by incubation with collagenase IV (200 U/ml), for 10-15 minutes at 37° C. The cell suspension was transferred to a 15 ml tube, and after the cells had sedimented, the supernatant was removed. The colonies were resuspended in Knock Out DMEM supplemented with 20% FBS, 1% penicillin-streptomycin, 1% Glutamax, 0.5 mmol/l β-mercaptoethanol and 1% non-essential amino acids (all from Invitrogen, Carlsbad, Calif.) and dissociated mechanically into small aggregates of undifferentiated cells (0.2-0.4 mm) using a pipette. This cell suspension was distributed (200 μl/well) into a 96-well v-bottom plate (Corning Incorporated, NY, USA) at a concentration of approximately 4-6 colonies per well and centrifuged for 5 min at 400×g. The plate was then incubated at 37° C. for 3-8 days. The 3D structures that formed were then transferred to gelatine coated dishes containing culture medium (same as above). After a couple of days (normally 1-4) of culture, spontaneously contracting areas with cluster of contracting cells (CMLC) occurred and could be visually identified using a light microscope. Medium was changed every second to third day. New spontaneously beating areas continued to appear for up to 20 days post-plating. The clusters are isolated by mechanical dissection under visual inspection using a light microscope from the 3D-structures and subjected to further characterization. […] These were then manually isolated from the surrounding cells and plated onto laminin coated glass. After three days in culture, the clusters were fixed and stained for nuclei and the protein cardiac troponin 1, which is known to be specific for cardiac tissue. These clusters were then examined with confocal microscopy.
CMLC were derived from undifferentiated hBS cells (cell line SA002, LOTAL002, passage 21, 22, 44 and 51) essentially as described in Example 1. […]
The number of contracting CMLC was visually determined at day 6 or 7 after plating of formed 3D structures. […] The effect of the treatment on beating area characteristics was determined in terms of distribution in beating frequency, length, width, calculated area and structure in two experiments; one using plating medium with 20% FBS and one with plating medium containing 2% FBS. […]

## Cc1cccc(CCN2CCC(C(=O)c3ccc(NS(C)(=O)=O)cc3)CC2)n1 [E-4031]
CMLC clusters; 0.5-1 μM E-4031, all CMLC phenotypes
  Action potential prolongation: concentration dependent action potential prolongation in all CMLC phenotypes
CMLC clusters; atrial-like CMLC, 0.5 μM E-4031, spontaneous f
  Average change in percent of APD90: 27.27 ± 7.61 (7) %
CMLC clusters; atrial-like CMLC, 1 μM E-4031, spontaneous f
  Average change in percent of APD90: 70.08 ± 25.91 (2) %
CMLC clusters; nodal-like CMLC, 0.5 μM E-4031, spontaneous f
  Average change in percent of APD90: 43.16 ± 21.00 (4) %
CMLC clusters; ventricle-like CMLC, 0.5 μM E-4031, 1 Hz
  Average change in percent of APD90: 34.89 ± 9.83 (4) %
CMLC clusters; ventricle-like CMLC, 0.5 μM E-4031, 2 Hz
  Average change in percent of APD90: 27.92 ± 9.23 (2) %
CMLC clusters; ventricle-like CMLC, 0.5 μM E-4031, spontaneous f
  Average change in percent of APD90: 16.67 ± 10.64 (5) %
CMLC clusters; ventricle-like CMLC, 1 μM E-4031, 1 Hz
  Average change in percent of APD90: 59.33 ± 31.28 (2) %
CMLC clusters; ventricle-like CMLC, 1 μM E-4031, 2 Hz
  Average change in percent of APD90: 38.14 ± 36.85 (3) %

## COc1cc(N)c(Cl)cc1C(=O)NC1CCN(CCCOc2ccc(F)cc2)CC1OC (centres unmarked) [Cisapride]
hERG channel in CMLC; increasing drug concentrations, FIGS. 5c and 5d
  Field action potential duration (indicator of QT prolongation): dose dependent prolongation of the action potential

## CNCC(O)c1ccc(O)c(O)c1 (centres unmarked) [Adrenaline]
[1]
  Effect on contractile activity / contraction frequency: stimulatory effect is registered within minutes

## COc1ccc(CCN(C)CCCN2CCc3cc(OC)c(OC)cc3CC2=O)cc1OC [Zatebradine]
CMLC clusters; 10 μM Zatebradine, FIG. 21
  Effect on action potential duration: increased duration
  Effect on beating frequency: slowed beating frequency
[2]
  Beating of some clusters: completely blocked
[2]; 32 spontaneously beating clusters of different ages
  Decrease of the beating frequency of CMLC, on average: about 50%

## CNC[C@H](O)c1cccc(O)c1 [Phenylephrine]
[1]
  Effect on contractile activity / contraction frequency: stimulated in a dose-dependent manner

## CC(CCc1ccccc1)NCC(O)c1ccc(O)c(C(N)=O)c1 (centres unmarked) [labetolol]
[1]
  Effect on contractile activity / contraction frequency: reduction in the stimulation of contraction frequency exerted by adrenaline

## CC(COc1ccccc1)N(CCCl)Cc1ccccc1 (centres unmarked) [phenoxybenzamine]
[1]
  Effect on contractile activity / contraction frequency: reduce the contraction frequency

## NC[C@H](O)c1ccc(O)c(O)c1 [Noradrenaline]
[1]
  Effect on contractile activity / contraction frequency: stimulates contractile activity normally in a concentration-response manner

## Fc1ccc(-c2nc3n(c2-c2ccncc2)CCS3)cc1 [SKF-86002]
hBS cells (SA002)
  Yield of beating CMLC compared to control cultures not receiving additional factors: ~3 times

## COc1ccc(CCN2CCC(Nc3nc4ccccc4n3Cc3ccc(F)cc3)CC2)cc1 [Astemizol]
hERG channel in CMLC; cumulative 0, 100 pM, 1 nM, 10 nM, 100 nM, 1000 nM
  Delayed repolarisation of the cardiac field potentials: selective block and sustained prolongation of the repolarizing component at low nanomolar concentrations
hERG channel in CMLC; hES-CMC cluster on MEA, cumulative 0, 1 nM, 10 nM, 100 nM, 1 μM, 10 μM, FIG. 30
  Delayed repolarization of the cardiac field potential: selective block and sustained prolongation of the repolarizing component at nanomolar concentrations

## Cn1cc(C2=C(c3ccc(Cl)cc3Cl)C(=O)NC2=O)c2ccccc21 [SB 216763]
hBS cells (SA002)
  Yield of beating CMLC compared to control cultures not receiving additional factors: ~3 times

## LIF: protein growth factor supplemented at 1000 U/ml post-plating
hBS cells (SA002); Activin A and bFGF pre-plating, LIF 1000 U/ml for 4 days post-plating, counted day 7 and day 14
  Yield of beating CMLC: further increased the generation of beating CMLC
hBS cells (SA002); medium containing Activin A and/or bFGF supplemented with LIF post-plating, FIG. 14
  Improvement of yield compared to controls that only receive medium: ~2 fold

## CC(C)NCC(O)COc1ccc(CC(N)=O)cc1 (centres unmarked) [atenolol]
[1]
  Effect on contractile activity / contraction frequency: stimulatory effect is reduced within minutes
